This is an account of results in patent US8536332B2, “Modulating signal transduction pathways with substituted pyridol [2,3-b] pyrazines” (Aeterna Zentaris GmbH, priority 2007, dated 2013).

Bounds are passed on as bounds.

Molecule `CCNC(=O)Nc1ccc2ncc(-c3ccccc3SC)nc2n1` [Compound 135, 1-Ethyl-3-[3-(2-methylsulfanyl-phenyl)-pyrido[2,3-b]pyrazin-6-yl]-urea] registered a melting point of 182 to 185 °C.
The result for `CCNC(=O)Nc1ccc2ncc(Nc3cccc(N(C)C)c3)nc2n1` [Compound 374, 1-[3-(3-Dimethylamino-phenylamino)-pyrido[2,3-b]pyrazin-6-yl]-3-ethyl-urea] reads 215 °C.
With `CCNC(=O)Nc1ccc2ncc(-c3cc(C)c(OC)c(C)c3)nc2n1` [Compound 80, 1-Ethyl-3-[3-(4-methoxy-3,5-dimethyl-phenyl)-pyrido[2,3-b]pyrazin-6-yl]-urea] the figure was 255.3 to 258.2 °C; with `CCNC(=O)Nc1cnc2ccc(NCC3CC3)nc2n1` [Compound 231, 1-[6-(Cyclopropylmethyl-amino)-pyrido[2,3-b]pyrazin-3-yl]-3-ethyl-urea], 201 to 203 °C; with `CCNC(=O)Nc1ccc2ncc(-c3ccc(NC(=O)CCC(=O)OC)cc3)nc2n1` [Compound 76, N-{4-[6-(3-Ethyl-ureido)-pyrido[2,3-b]pyrazin-3-yl]-phenyl}-succinamic acid methyl ester], 253 °C.
The result for `Cc1cc(-c2ccc3ncc(NC(=O)NC4CCCCC4)nc3n2)cc(C)c1O` [Compound 584] reads 247 to 250 °C.
Regarding `CCNC(=O)Nc1ccc2ncc(-c3cccc(-c4ccccc4)c3)nc2n1` [Compound 116, 1-(3-Biphenyl-3-yl-pyrido[2,3-b]pyrazin-6-yl)-3-ethyl-urea], the melting point was 251 to 255 °C.
The molecule `CCNC(=O)Nc1ccc2ncc(-c3cccc(NS(C)(=O)=O)c3)nc2n1` [Compound 120, N-{3-[6-(3-Ethyl-ureido)-pyrido[2,3-b]pyrazin-3-yl]-phenyl}-methanesulfonamide] yielded a melting point of 224 to 228 °C.
On to `CCNC(=O)Nc1cnc2ccc(-c3cc(OC)c(OC)c(OC)c3)nc2n1` [Compound 23, 1-Ethyl-3-[6-(3,4,5-trimethoxy-phenyl)-pyrido[2,3-b]pyrazin-3-yl]-urea], for which the melting point was over 230 °C.
Take `COc1cc(Nc2cnc3ccc(NC(=S)NC(C)c4ccccc4)nc3n2)cc(OC)c1OC` (stereo not drawn) [Compound 711, 1-(1-Phenyl-ethyl)-3-[3-(3,4,5-trimethoxy-phenylamino)-pyrido[2,3-b]pyrazin-6-yl]-thiourea]: the melting point was found to be 248 °C.
For the molecule `COc1cc(Nc2cnc3ccc(NC(=S)NC(C)(C)C)nc3n2)cc(OC)c1OC` [Compound 694, 1-tert-Butyl-3-[3-(3,4,5-trimethoxy-phenylamino)-pyrido[2,3-b]pyrazin-6-yl]-thiourea], the melting point is 218 to 220 °C.
In the case of `COc1cc(-c2ccc3ncc(NC(=S)NC4CCCCC4)nc3n2)ccc1O` [Compound 524, 1-Cyclohexyl-3-[6-(4-hydroxy-3-methoxy-phenyl)-pyrido[2,3-b]pyrazin-3-yl]-thiourea], the melting point was 253 to 254 °C.
`CC(C)NC(=O)Nc1cnc2ccc(-c3cc(Cl)c(O)c(Cl)c3)nc2n1` [Compound 552, 1-[6-(3,5-Dichloro-4-hydroxy-phenyl)-pyrido[2,3-b]pyrazin-3-yl]-3-isopropyl-urea]: the melting point was 259 to 261 °C.
In turn, `COc1cc(Nc2cnc3ccc(NC(=S)NCCCc4ccccc4)nc3n2)cc(OC)c1OC` [Compound 704, 1-(3-Phenyl-propyl)-3-[3-(3,4,5-trimethoxy-phenylamino)-pyrido[2,3-b]pyrazin-6-yl]-thiourea] yielded a melting point of 195 to 198 °C.
With `CCNC(=O)Nc1ccc2ncc(-c3ccc(-c4ccccc4)cc3)nc2n1` [Compound 123, 1-(3-Biphenyl-4-yl-pyrido[2,3-b]pyrazin-6-yl)-3-ethyl-urea] the figure was 280 °C.
`CCNC(=O)Nc1ccc2ncc(-c3cccc(C#N)c3)nc2n1` [Compound 114, 1-[3-(3-Cyano-phenyl)-pyrido[2,3-b]pyrazin-6-yl]-3-ethyl-urea] returned a melting point of 253 to 257 °C.
The result for `CCNC(=O)Nc1ccc2ncc(-c3cccc(OCC)c3F)nc2n1` [Compound 146, 1-[3-(3-Ethoxy-2-fluoro-phenyl)-pyrido[2,3-b]pyrazin-6-yl]-3-ethyl-urea] reads 202 to 204 °C.
On to `CCNc1ccc2ncc(Nc3cc(OC)c(OC)c(OC)c3)nc2n1` [Compound 733, N*6*-Ethyl-N*3*- (3,4,5-trimethoxy-phenyl)-pyrido[2,3-b]pyrazine-3,6-diamine], for which the melting point stood at 110 °C.
Consider `Cc1cc(-c2ccc3ncc(NC(=O)Nc4ccc(N(C)C)cc4)nc3n2)cc(C)c1O` [Compound 583], for which the melting point was 273 to 275 °C.
Turning to `CCNC(=S)Nc1cnc2ccc(Nc3ccc(C)c(OC)c3)nc2n1` [Compound 210, 1-Ethyl-3-[6-(3-methoxy-4-methyl-phenylamino)-pyrido[2,3-b]pyrazin-3-yl]-thiourea], the melting point was 148 °C.
The result for `CCNC(=O)Nc1ccc2ncc(-c3cnc(N)nc3)nc2n1` [Compound 72, 1-[3-(2-Amino-pyrimidin-5-yl)-pyrido[2,3-b]pyrazin-6-yl]-3-ethyl-urea] reads over 300 °C; that for `CCNC(=O)Nc1ccc2ncc(-c3cccc(Cl)c3F)nc2n1` [Compound 99, 1-[3-(3-Chloro-2-fluoro-phenyl)-pyrido[2,3-b]pyrazin-6-yl]-3-ethyl-urea], 275 °C; that for `CCNC(=S)Nc1cnc2ccc(Nc3cccc(OC)c3)nc2n1` [Compound 221, 1-Ethyl-3-[6-(3-methoxy-phenylamino)-pyrido[2,3-b]pyrazin-3-yl]-thiourea], 189 °C.
The molecule `CCNC(=O)Nc1cnc2ccc(NCc3ccccc3)nc2n1` [Compound 239, 1-(6-Benzylamino-pyrido[2,3-b]pyrazin-3-yl)-3-ethyl-urea] displayed a melting point of 211 to 213 °C.
`CCNC(=O)Nc1cnc2ccc(Nc3ccc(O)c(OC)c3)nc2n1` [Compound 21, 1-Ethyl-3-[6-(4-hydroxy-3-methoxy-phenylamino)-pyrido[2,3-b]pyrazin-3-yl]-urea] registered a melting point of 255 °C.
Regarding `COc1cc(-c2ccc3ncc(NC(=O)NC4CCCCCCC4)nc3n2)ccc1O` [Compound 604, 1-Cyclooctyl-3-[6-(4-hydroxy-3-methoxy-phenyl)-pyrido[2,3-b]pyrazin-3-yl]-urea], the melting point was 232 to 234 °C.
The result for `CCNC(=O)Nc1ccc2ncc(Nc3ccc(C)cc3C)nc2n1` [Compound 398, 1-[3-(2,4-Dimethyl-phenylamino)-pyrido[2,3-b]pyrazin-6-yl]-3-ethyl-urea] reads 210 °C; that for `CCNC(=S)Nc1ccc2ncc(Nc3cc(Cl)cc(Cl)c3)nc2n1` [Compound 443, 1-[3-(3,5-Dichloro-phenylamino)-pyrido[2,3-b]pyrazin-6-yl]-3-ethyl-thiourea], 270 °C; that for `COc1cc(Nc2cnc3ccc(NC(=S)Nc4c(C)noc4C)nc3n2)cc(OC)c1OC` [Compound 695, 1-(3,5-Dimethyl-isoxazol-4-yl)-3-[3-(3,4,5-trimethoxy-phenylamino)-pyrido[2,3-b]pyrazin-6-yl]-thiourea], 247 °C.
With `CNC(=S)Nc1ccc2ncc(Nc3cc(OC)c(OC)c(OC)c3)nc2n1` [Compound 692, 1-Methyl-3-[3-(3,4,5-trimethoxy-phenylamino)-pyrido[2,3-b]pyrazin-6-yl]-thiourea] the figure was 258 to 261 °C.

The term melting point denotes the temperature of the solid-liquid transition.
